Assay [1] relates to db/db mutant mice. The experiment in a line: Oral administration in the early intervention treatment of type 2 diabetes in db/db mutant mice. Format: in vivo. The settings on record: day 12. The procedure:
Five week-old female db/db mutant mice (C57BL/KsJ-db +/+ m; Jackson Labs) were housed in a fixed 12-12-hr artificial light-dark cycle, and maintained on a standard high fat diet (containing at least 11% crude fat) provided ad libitum (Teklad S-2335). Animals were allowed two days to acclimate in this experimental environment prior to the initiation of the study.
Prior to initiation of treatment, the animals were bled from the tail vein (100–200 μL of whole blood) and serum levels of glucose and triglycerides were measured in duplicate (Trinder kits; Sigma, St. Louis, Mo.). Based on these initial measures, animals (not yet hyperglycemic) were sorted into groups with approximately the same average serum glucose levels. Once sorted, the animals were housed six per cage and provided high fat rodent diet ad libitum. • Experiment I: (Compound 1) • Treatment groups (n=6/group): • 1) db/db control (sesame oil) • 2) Compound 1 (0.3 mg/kg; twice daily) • 3) Compound 1 (1 mg/kg; twice daily) • Experiment II: (Compound 32) • Treatment groups (n=6/group): • 1) db/db control (sesame oil) • 2) Compound 32 (0.3 mg/kg; once daily) • 3) Compound 32 (1 mg/kg; once daily) • 4) Compound 32 (3 mg/kg; once daily) • 3) Rosiglitazone (1 mg/kg; only daily)
Drug is prepared by mixing Compound 1 or 32 in sesame oil, and administered to animals in a volume of 5 ml/kg/dose. Drug is administered by oral gavage daily at the beginning (Compound 1 and 32) and end of the artificial dark cycle (Compound 1; 12 hour interval).
To monitor the effect of Compound 1 or 32, animals were bled following a three-hour fast at the end of the dark cycle on days 12 of the treatment period. Fasting serum glucose and triglyceride levels were measured in duplicate. The blood is kept at room temperature to allow coagulation, after which the serum is separated and assayed for glucose and triglyceride levels.

The test system of assay [2] is ob/ob mutant mice. The experiment in a line: Oral administration in the late intervention treatment of type 2 diabetes in ob/ob mutant mice. To be noted: oral gavage 5 mg/kg twice daily, p<0.05 vs control; for fasting serum glucose levels: 1 and 2 weeks of treatment; for fasting serum triglyceride levels: two weeks of treatment. It is filed as in vivo. On the procedure: Five week-old male ob/ob mutant mice (C57BL/6J-ob; Jackson Labs) were housed in a fixed 12-12-hr artificial light-dark cycle, and maintained on a standard diet provided ad libitum. Animals were allowed two days to acclimate in this experimental environment prior to the initiation of the study.
Prior to initiation of treatment, the animals were bled from the tail vein (100–200 μL of whole blood) and serum levels of glucose and triglycerides were measured in duplicate (Trinder kits; Sigma, St. Louis, Mo.). Based on these initial measures, hyperglycemic animals were sorted into groups with approximately the same average serum glucose levels. Once sorted, the animals were housed six per cage and provided standard rodent diet ad libitum. • Treatment groups (n=6/group): • 1) ob/ob control (sesame oil) • 2) Compound 1 (5mg/kg twice daily)
Drug is prepared by mixing Compound 1 in sesame oil, and administered to animals in a volume of 3 ml/kg/dose. Drug is administered by oral gavage twice daily at the beginning and end of the artificial dark cycle (12 hour interval).
To monitor the effect of Compound 1, animals were bled following a three-hour fast at the end of the dark cycle on days 7 and 14 of the treatment period. Fasting serum glucose and triglyceride levels were measured in duplicate. The blood is kept at room temperature to allow coagulation, after which the serum is separated and assayed for glucose and triglyceride levels.

[3] abbreviates: young db/db mice, oral gavage, 0.3 or 1 mg/kg twice daily.
Setting [4] is: young db/db mice, oral gavage, 0.3 or 1 mg/kg twice daily, listed as compound 1.
Where [5] appears, read: db/db mice, oral gavage, 0.3, 1 or 3 mg/kg once daily, rosiglitazone 1 mg/kg as comparator.
Where [6] appears, read: db/db mice, oral gavage, 0.3, 1 or 3 mg/kg once daily, rosiglitazone 1 mg/kg as comparator, listed as compound 32.

The values that follow come from patent US7226940B2, “Substituted heterocycles for the treatment of diabetes and other diseases” (Incyte San Diego, Inc., priority 2004, dated 2007).

`COc1ccc(/C=C2\SC(=O)NC2=O)cc1-c1cc2c(cc1C)C(C)(C)CCC2(C)C` [Compound 1, 3-(3,5,5,8,8-Pentamethyl-5,6,7,8-tetrahydro-2-naphthyl)-4-methoxybenzylidene-2,4-thiazolidinedione]: the “fasting serum glucose levels” value in assay [1] (setting [3]) is “remained well within the normal range”; in assay [1] (setting [4]), “prevent increases”; in assay [2] (5 mg/kg) it was “significant decrease”; in assay [2] (listed as compound 1, 5 mg/kg), “reduce”. Also, the “fasting serum triglyceride levels” value is “remained well within the normal range” in assay [1] (setting [3]); “prevent increases” in assay [1] (setting [4]); “significantly reduced” in assay [2] (5 mg/kg); “reduce” in assay [2] (listed as compound 1, 5 mg/kg).
Turning to `Cc1cc2c(cc1-c1cc(/C=C3\SC(=O)NC3=O)ccc1OC(F)(F)F)C(C)(C)CCC2(C)C` [Compound 32, 3-(3,5,5,8,8-Pentamethyl-5,6,7,8-tetrahydro-2-naphthyl)-4-trifluoromethoxybenzylidene-2,4-thiazolidinedione], the “fasting serum glucose levels” value in assay [1] (setting [5]) is “remained well within the normal range”; in assay [1] (setting [6]), “equally or more potent than rosiglitazone”. The figures for the “fasting serum triglyceride levels” value in assay [1] (setting [5]) and in assay [1] (setting [6]) were “remained well within the normal range” and “equally or more potent than rosiglitazone”, respectively.
